GI50 and TGI data for nine molecules are collected here from PubChem BioAssay (NCI).

Among the test systems are A549 NSCLC; CAKI-1 renal; MALME-3M melanoma; MDA-MB-231 breast; SK-MEL-2 melanoma; SK-MEL-28 melanoma; SN12C renal; T-47D breast; CCRF-CEM leukemia; RPMI-8226 leukemia.
Assay in all cases: growth of human tumour cells (NCI), 48 h

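Interpolation was linear, between the two tested concentrations surrounding the appropriate level; five concentrations were tested over 48 hours in 96-well plates. GI50 marks 50% less growth. TGI: concentration producing complete growth inhibition.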

Take `Cc1cc2c(C(=O)NCC#N)cccc2n1-c1nc2c(c(NCc3ccccc3)n1)CCCC2`: the GI50 is 0.312 µM with A549 NSCLC; 0.666 µM in the test with CAKI-1 renal; 0.201 µM with MALME-3M melanoma; 0.273 µM in the test on MDA-MB-231 breast; 0.231 µM in the test with SK-MEL-2 melanoma; 0.406 µM in the test on SK-MEL-28 melanoma. The figures for the GI50 in the test with SN12C renal and with T-47D breast were 0.31 µM and 0.269 µM, respectively. Moreover, the TGI in the test with A549 NSCLC was 1.28 µM; with CAKI-1 renal, > 100 µM; with MALME-3M melanoma it was 0.618 µM; in the test with MDA-MB-231 breast it was 0.59 µM; in the test on SK-MEL-2 melanoma, 0.644 µM; with SK-MEL-28 melanoma, 1.86 µM. Moreover, the figures for the TGI in the test with SN12C renal and with T-47D breast were 0.904 µM and 1.53 µM, respectively.
`C/C=C(\C)c1cc(=O)c2c(C)cc3c(c2o1)C(OC)(OC(C)=O)c1c(O)c(C2CC(C)(N(C)C)C(OC(C)=O)C(C)O2)cc(C2CC(N(C)C)C(OC(C)=O)C(C)O2)c1C3=O` (stereo not given): the TGI in the test with A549 NSCLC was > 100 µM; in the test on CAKI-1 renal, 9.39 µM; with CCRF-CEM leukemia it was 10.1 µM; in the test with MALME-3M melanoma, 2.37 µM; in the test with MDA-MB-231 breast, 1.49 µM; with SK-MEL-28 melanoma, 26.1 µM. For the same molecule, the TGI in the test on SN12C renal came out at 5.23 µM; in the test on T-47D breast, 17.6 µM.
For the molecule `CC(=O)OC1CC2C(C)(C)CCC[C@]2(C)C2=C1C(O)=C(C(C)C)C(=O)C2=O` (stereo not given in full), the GI50 is 0.521 µM in the test with A549 NSCLC; 0.567 µM in the test with CAKI-1 renal; 1.12 µM with CCRF-CEM leukemia; 0.341 µM in the test on MALME-3M melanoma; 0.477 µM in the test on MDA-MB-231 breast; 0.466 µM in the test with RPMI-8226 leukemia. Further, the GI50 was 0.356 µM in the test on SK-MEL-2 melanoma, 0.68 µM with SK-MEL-28 melanoma, 0.801 µM in the test with SN12C renal and 0.739 µM with T-47D breast. The TGI was 3.01 µM in the test on A549 NSCLC; 2.9 µM with CAKI-1 renal; 7.03 µM in the test on CCRF-CEM leukemia; 1.59 µM in the test on MALME-3M melanoma; 3.74 µM with MDA-MB-231 breast; 4.08 µM with RPMI-8226 leukemia. Also, the TGI is 1.39 µM in the test with SK-MEL-2 melanoma, 2.16 µM with SK-MEL-28 melanoma, 7.58 µM with SN12C renal and 4.98 µM in the test with T-47D breast.
Take `Cc1ccc(S(=O)(=O)OCC(=O)Nc2ccc(C(=O)O)c(O)c2)cc1`: the GI50 in the test on A549 NSCLC was 199 µM; with CAKI-1 renal, 14.7 µM; in the test on CCRF-CEM leukemia, 13.7 µM; with MALME-3M melanoma it was 32.3 µM; in the test with MDA-MB-231 breast, 25.9 µM; in the test on RPMI-8226 leukemia, 138 µM. Also, the GI50 with SK-MEL-2 melanoma is 50.2 µM; in the test on SK-MEL-28 melanoma it was 31.8 µM; in the test with SN12C renal, 27.9 µM; with T-47D breast, 43.2 µM. In addition, the TGI was 503 µM in the test with A549 NSCLC; 91.1 µM with CAKI-1 renal; 69 µM in the test with CCRF-CEM leukemia; 115 µM in the test with MALME-3M melanoma; 99.6 µM in the test on MDA-MB-231 breast; 346 µM in the test with RPMI-8226 leukemia. For the same molecule, the TGI in the test on SK-MEL-2 melanoma amounted to 203 µM; in the test on SK-MEL-28 melanoma, 94.5 µM; with SN12C renal it was 105 µM; with T-47D breast, 133 µM.
For the molecule `Nc1c(C(=O)c2ccc(C#CCN3CCOCC3)cc2)cnn1-c1ccc(F)cc1`, the GI50 in the test on A549 NSCLC, in the test on CAKI-1 renal, with CCRF-CEM leukemia, in the test with MALME-3M melanoma, in the test on MDA-MB-231 breast and with RPMI-8226 leukemia was > 25 µM each time. The GI50 in the test with SK-MEL-2 melanoma, in the test on SK-MEL-28 melanoma, in the test with SN12C renal and in the test on T-47D breast was > 25 µM each time. For the same molecule, the TGI with A549 NSCLC, with CAKI-1 renal, with CCRF-CEM leukemia, with MALME-3M melanoma, in the test on MDA-MB-231 breast and in the test on RPMI-8226 leukemia was > 25 µM in each case. In addition, the TGI in the test with SK-MEL-2 melanoma, in the test on SK-MEL-28 melanoma, in the test with SN12C renal and in the test with T-47D breast was > 25 µM each time.
As to `O=C(Nc1ccn(C2CC(I)C(COC(c3ccccc3)(c3ccccc3)c3ccccc3)O2)c(=O)n1)c1ccccc1` (stereo not given), the TGI in the test on A549 NSCLC is 21.5 µM; with CAKI-1 renal it was 21.5 µM; in the test on CCRF-CEM leukemia it was 17.3 µM; in the test with MALME-3M melanoma, 13.4 µM; with MDA-MB-231 breast, 17.9 µM; in the test with RPMI-8226 leukemia, 17 µM. Further, the TGI with SK-MEL-28 melanoma worked out at 16.2 µM; in the test with SN12C renal, 12.6 µM; in the test on T-47D breast it was 21.5 µM.
As for `COc1ccc(/C(=C/c2ccc3ccccc3c2)c2nn[nH]n2)cc1OC`, the GI50 was 3.8 µM in the test on A549 NSCLC; 2.24 µM with CAKI-1 renal; 3.33 µM in the test with CCRF-CEM leukemia; 3.08 µM in the test with MALME-3M melanoma; 12.5 µM in the test with MDA-MB-231 breast; 4.02 µM in the test with RPMI-8226 leukemia. For the same molecule, the GI50 with SK-MEL-2 melanoma was 4.36 µM; with SK-MEL-28 melanoma, 8.07 µM; in the test with SN12C renal, 9.97 µM; in the test with T-47D breast, 28.2 µM. For the same molecule, the TGI in the test on A549 NSCLC, in the test on CAKI-1 renal, in the test with CCRF-CEM leukemia, in the test on MALME-3M melanoma, in the test with MDA-MB-231 breast and in the test with RPMI-8226 leukemia was > 100 µM each time. The TGI in the test on SK-MEL-2 melanoma, with SK-MEL-28 melanoma, in the test with SN12C renal and in the test on T-47D breast was > 100 µM throughout.
`CCOC(=O)C1=C(C)NC(C)=C(C(=O)OCCNC(=O)c2ccc(N=[N+]=[N-])cc2)C1c1ccccc1C(F)(F)F` (stereo not given): the TGI in the test with A549 NSCLC turned out to be 21.5 µM; in the test with CAKI-1 renal, 21.5 µM; with CCRF-CEM leukemia, 21.5 µM; in the test with MALME-3M melanoma, 21.5 µM; in the test on MDA-MB-231 breast it was 21.5 µM; in the test with RPMI-8226 leukemia, 18.9 µM. Moreover, the TGI with SK-MEL-28 melanoma, with SN12C renal and with T-47D breast was 21.5 µM in each case.
For the molecule `Cc1cc(I)cc(CNCCN2CCOCC2)c1O`, the GI50 in the test with A549 NSCLC, in the test with CAKI-1 renal, in the test with MALME-3M melanoma, in the test on MDA-MB-231 breast, with RPMI-8226 leukemia and in the test with SK-MEL-2 melanoma was > 100 µM throughout. The GI50 in the test on SK-MEL-28 melanoma was > 100 µM; with SN12C renal it was > 100 µM; in the test with T-47D breast, 84.8 µM. Also, the TGI in the test with A549 NSCLC, with CAKI-1 renal, in the test with MALME-3M melanoma, in the test on MDA-MB-231 breast, in the test with RPMI-8226 leukemia and with SK-MEL-2 melanoma was > 100 µM each time. Moreover, the TGI in the test on SK-MEL-28 melanoma, in the test with SN12C renal and with T-47D breast was > 100 µM each time.
